Laboratory results reported in patent publication US20090226544A1, “Pharmaceutical Compound For Treating Inflammation, Pain, Arthritis And Spinitis, And Proliferating Osteoblastic Cell And Method For Producing Thereof” (priority 2005, published 2009).

Legend:
Format in all cases: in vivo
SD male albino rats [1] = test: Carrageenan-induced hind paw edema, Example 4 administered for 2 weeks (Experimental Example 5); conditions: dose 5 mg/kg, 2-week test
Experimental: SD male albino rats weighing 150 to 170 g, which were fasted for 16 hours before experimental use, were used as test animals to induce edema by subcutaneously injecting 0.1 ml of a 1% type IV lambda carrageenan-saline solution as a […] to the subplantar of the right hind paw of each of the albino rats (Winter et al., 1962). The paw volume was measured with a plethysmometer (Ugo Basile, Italy) 0.5, 1, 2, 4 and 6 hours after injection of carrageenan and compared with the paw volume measured before injection of carrageenan for calculation of an increase (%) of paw volume. In addition, an increase (%) of paw volume for a control group was compared with increases (%) of paw volume for treatment groups for obtaining a reduction ratio (%) of paw volume. The pharmaceutical compositions prepared in Examples 1 through 4 were orally administered to the […] 30 minutes before injection of carrageenan. The extent of paw edema (or swelling) was obtained based on the edema enhancement rate and edema inhibition rate measured using the following relationship. […] Phenylbutazone was used as a positive control. In order to examine the inhibitory effect of the pharmaceutical composition prepared in Example 4 of the present invention on acute inflammation induced by carrageenan, […] Experimental Example 1 and the results are summarized in Table 4. […]

SD male albino rats [2] = test: as above; conditions: dose 5 mg/kg; 2-week test; 2 h after carrageenan
SD male albino rats [3] = test: Carrageenan-induced hind paw edema, Example 4 at 30-600 mg/kg (Experimental Example 4)
Experimental: SD male albino rats weighing 150 to 170 g, which were fasted for 16 hours before experimental use, were used as test animals to induce edema by subcutaneously injecting 0.1 ml of a 1% type IV lambda carrageenan-saline solution as a […] to the subplantar of the right hind paw of each of the albino rats (Winter et al., 1962). The paw volume was measured with a plethysmometer (Ugo Basile, Italy) 0.5, 1, 2, 4 and 6 hours after injection of carrageenan and compared with the paw volume measured before injection of carrageenan for calculation of an increase (%) of paw volume. In addition, an increase (%) of paw volume for a control group was compared with increases (%) of paw volume for treatment groups for obtaining a reduction ratio (%) of paw volume. The pharmaceutical compositions prepared in Examples 1 through 4 were orally administered to the […] 30 minutes before injection of carrageenan. The extent of paw edema (or swelling) was obtained based on the edema enhancement rate and edema inhibition rate measured using the following relationship. […] Phenylbutazone was used as a positive control. In order to examine the inhibitory effect of the pharmaceutical composition prepared in Example 4 of the present invention on acute inflammation induced by carrageenan, […] Experimental Example 1 and the results are summarized in Table 4.

SD male albino rats [4] = test: Acute inflammation test by carrageenan-induced hind paw edema, composition given 30 minutes before carrageenan (Experimental Example 1); conditions: dose 50 mg/kg oral
Experimental: (§1) SD male albino rats weighing 150 to 170 g, which were fasted for 16 hours before experimental use, were used as test animals to induce edema by subcutaneously injecting 0.1 ml of a 1% type IV lambda carrageenan-saline solution as a […] to the subplantar of the right hind paw of each of the albino rats (Winter et al., 1962). The paw volume was measured with a plethysmometer (Ugo Basile, Italy) 0.5, 1, 2, 4 and 6 hours after injection of carrageenan and compared with the paw volume measured before injection of carrageenan for calculation of an increase (%) of paw volume. In addition, an increase (%) of paw volume for a control group was compared with increases (%) of paw volume for treatment groups for obtaining a reduction ratio (%) of paw volume. […] The extent of paw edema (or swelling) was obtained based on the edema enhancement rate and edema inhibition rate measured using the following relationship.

SD male albino rats [5] = test: Acute inflammation test by carrageenan-induced hind paw edema after 2 weeks of administration (Experimental Example 2); conditions: dose 50 mg/kg, 2-week test
Experimental: as §1

ICR male mice = test: Analgesic effect test, acetic acid-induced writhing (Experimental Example 3); conditions: dose 50 mg/kg oral
Experimental: The pharmaceutical compositions prepared in Examples 1 through 4 were orally administered to ICR (Institute of Cancer Research) male mice weighing 25 to 28 g, which were fasted for 12 hours before experimental use. After 30 minutes of administration, 0.7% acetic acid-saline solution was intraperitoneally injected to the mice in a dose of […] per 10 g of body weight and from 5 minutes after administration, the number of writhings occurring to each mouse was counted for 10 minutes (Koster et al., 1959) and the results are summarized in Table 3. Phenylbutazone was used as a positive control.

Structure (SMILES) | Increased percent of paw volume (%) (SD male albino rats [1]; 0.5 h after carrageenan) | reduction ratio (%) of paw volume vs control (SD male albino rats [1]; 0.5 h after carrageenan) [%] | Increased percent of paw volume (%) (SD male albino rats [1]; 1 h after carrageenan) | reduction ratio (%) of paw volume vs control (SD male albino rats [1]; 1 h after carrageenan) [%] | reduction ratio (%) of paw volume vs control (SD male albino rats [1]; 2 h after carrageenan) [%] | Increased percent of paw volume (%) (SD male albino rats [1]; 4 h after carrageenan) | reduction ratio (%) of paw volume vs control (SD male albino rats [1]; 4 h after carrageenan) [%] | Increased percent of paw volume (%) (SD male albino rats [1]; 6 h after carrageenan) | reduction ratio (%) of paw volume vs control (SD male albino rats [1]; 6 h after carrageenan) [%] | Increased percent of paw volume (%) (SD male albino rats [2]) | Increased percent of paw volume (%) (SD male albino rats [3]; 0.5 h after carrageenan) | reduction ratio (%) of paw volume vs control (SD male albino rats [3]; 0.5 h after carrageenan) [%] | Increased percent of paw volume (%) (SD male albino rats [3]; 1 h after carrageenan) | reduction ratio (%) of paw volume vs control (SD male albino rats [3]; 1 h after carrageenan) [%] | Increased percent of paw volume (%) (SD male albino rats [3]; 2 h after carrageenan) | reduction ratio (%) of paw volume vs control (SD male albino rats [3]; 2 h after carrageenan) [%] | Increased percent of paw volume (%) (SD male albino rats [3]; 4 h after carrageenan) | reduction ratio (%) of paw volume vs control (SD male albino rats [3]; 4 h after carrageenan) [%] | Increased percent of paw volume (%) (SD male albino rats [3]; 6 h after carrageenan) | reduction ratio (%) of paw volume vs control (SD male albino rats [3]; 6 h after carrageenan) [%] | further results
O=C(O)Cc1ccccc1Nc1c(Cl)cccc1Cl [Diclofenac, diclofenac] | 12.0 ± 1.8 | 55.5 | 13.7 ± 1.4 | 55.6 | 54.4 | 49.2 ± 3.9 | 37.1 | 51.8 ± 4.0 | 31.50 | 22.0 ± 2.0 | 9.6 ± 1.6 | 47.5 | 13.6 ± 2.6 | 48.0 | 17.7 ± 3.1 | 56.3 | 37.24 ± 5.9 | 55.7 | 34.89 ± 2.8 | 52.8 | 
O=C(O)COC(=O)Cc1ccccc1Nc1c(Cl)cccc1Cl [Aceclofenac, aceclofenac] | 10.1 ± 1.4 | 62.6 | 15.1 ± 1.7 | 51.4 | 59.2 | 55.3 ± 3.9 | 29.4 | 61.0 ± 3.5 | 19.4 | 19.7 ± 2.0 | 12.1 ± 2.6 | 34.8 | 12.1 ± 3.5 | 53.7 | 16.7 ± 3.0 | 58.7 | 36.9 ± 5.1 | 56.1 | 50.6 ± 3.9 | 31.5 | 
CCCCC1C(=O)N(c2ccccc2)N(c2ccccc2)C1=O [Phenylbutazone, phenylbutazone] |  |  |  |  |  |  |  |  |  |  |  |  |  |  |  |  |  |  |  |  | Increased percent of paw volume (%) (SD male albino rats [4]; 1 h after carrageenan): 14.0 ± 0.9 %; Increased percent of paw volume (%) (SD male albino rats [4]; 2 h after carrageenan): 25.0 ± 3.7 %; Increased percent of paw volume (%) (SD male albino rats [4]; 4 h after carrageenan): 37.8 ± 4.3%; Increased percent of paw volume (%) (SD male albino rats [4]; 6 h after carrageenan): 35.0 ± 2.4 %; Increased percent of paw volume (%) (SD male albino rats [5]; 1 h after carrageenan): 13.2 ± 0.8 %; Increased percent of paw volume (%) (SD male albino rats [5]; 2 h after carrageenan): 19.3 ± 2.4 %; Increased percent of paw volume (%) (SD male albino rats [5]; 4 h after carrageenan): 39.1 ± 5.0 %; Increased percent of paw volume (%) (SD male albino rats [5]; 6 h after carrageenan): 35.0 ± 2.4 %; Number of writhing (ICR male mice; counted for 10 minutes): 12.3 ± 0.9; Inhibition rate (%) (ICR male mice; writhing): 50.1%
